The results in this text go back to patent publication US20060088552A1, “Method for inhibiting cell death, cell death inhibitor, and remedy for disease caused by cell death containing the cell death inhibitor” (priority 2002, published 2006).

In test [1] the test system is C6 glial cells. Format: cell-based, rat. The protocol: Cell volume was assessed according to a Coulter principle using a flow cytometer (EPICS Elite ESP, Coulter Co., Miami, Fla.). Cell viability was also assessed under a flow cytometry by a propidium iodide exclusion test. The cell suspension of 10 ml was incubated at 37° C. fro 1 min after adding 2 μl of PBS containing 10 mg/ml propidium iodide. Mean cell volume was measured at a given time by introducing 350 μl of the cell suspension containing 2×10^4 cells into the flow cytometer. A baseline cell volume was obtained as mean of values measured before and after a 20-min incubation in control solution (pH 7.4). Thereafter, effects of acidosis (pH 6.2), lactacidosis (pH 6.2), or lactate (pH 7.4) were assessed with addition of (i) HCl, (ii) lactate, or (iii) lactate and Tris. After the cells were preincubated with control (pH 7.4), acidic (pH 6.2), or lactacidosis (pH 6.2 with lactate) solution (all isotonic), effects of a hypotonic challenge were also assessed by diluting the isotonic medium with a 30% volume of deionized distilled water.
Composition of control solution employed for cell volume measurements was as follows: 125 mM NaCl, 2.5 mM KCl, 2 mM CaCl2, 1.0 mM MgCl2, 10 mM glucose, 1.25 mM NaH2PO4, and 25 mM NaHCO3 (pH 7.4, in 95% air/5% CO2). […] Molar osmolality measured by a freezing-point depression osmometer (Vogel, Giessen, Germany) was, 300, 306, and 312 mosmol/kg-H2O. […]

Test [2] relates to C6 glial cells. Briefly: Whole-cell patch-clamp recording of VacA-induced currents. As to conditions: extracellular application, 100 μM, pH 7.4. It is filed as cell-based, rat. The protocol:
Using wide-tipped electrodes (to 2 MΩ), observation according to whole-cell recording (patch-clamp methods) was performed at room temperature (23-25° C.) as reported previously (Kubo M., Okada Y., “Volume-regulatory Cl^− channel currents in cultured human epithelial cells”, J. Physiol. 456, 351-371, 1992). Series resistance (<5 MΩ) was compensated (to 60% to 70%) to minimize voltage errors. Time course of current change was monitored by applying (every 15 s) alternating step pulses ([…]) from a holding potential of 0 to ±40 mV. To monitor voltage dependence of a whole-cell volume-sensitive current, step pulses (2-s duration) were applied from a prepotential of −60 mV (2-s duration) to test potentials of −60 to 100 mV in 20 mV increments after attaining steady-state activation of swelling-induced current. […] Instantaneous currents were recorded 2.5 ms after application of step pulses. […] Currents were recorded using an EPC-9 amplifier (HEKA, Lambrechet, Germany). […]
Cell swelling was induced by hypotonic (270 mosmol/kg H2O) solution in which mannitol was reduced to 40 mM. […] Permeability properties of VacA-induced channels were also assessed by using the following solutions: […]
Relative anion permeability was also assessed by replacing 115 mM extracellular Cl^− with aspartate. […]
A general note: In patch-clamp work, channel activity is measured electrically.

As to `O=C(O)c1cc([N+](=O)[O-])ccc1NCCCc1ccccc1` [NPPB], the “volume regulation after lactacidosis-induced transient swelling in VacA-treated cells” value in test [1] (100 μM NPPB, VacA-treated cells) is reported as “abolished”. In addition, the “effect on VacA-mediated current” value in test [2] is listed as “strongly inhibited”.

gramicidin: the “lactacidosis-induced persistent cell swelling” value in test [1] (pretreatment with gramicidin 0.5 μM) is reported as “not prevented”.
